According to ChEMBL document CHEMBL1201862, “PubChem BioAssay data set” (2004):
Several values for one entry are separate records, joined by “and”; a condition that tells them apart may be missing. Equal values may be shown once.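 How tested: cells in 96-well plates exposed to compound for 48 hours at five concentrations. GI50 is the concentration that inhibits growth by half.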 Activity calls are given as the source filed them. Rule as the data show it: active = GI50 up to about 1.1 µM and inactive = higher.

Legend:
Experiment in all cases: inhibition of tumour cell growth, NCI panel, 48 h
786-0 = test system: 786-0
A549 = test system: A549
CCRF-CEM = test system: CCRF-CEM
COLO 205 = test system: COLO 205
EKVX = test system: EKVX
HOP-62 = test system: HOP-62
MDA-MB-435 = test system: MDA-MB-435
MDA-N = test system: MDA-N
NCI-H460 = test system: NCI-H460
NCI/ADR-RES = test system: NCI/ADR-RES
OVCAR-4 = test system: OVCAR-4
SF-295 = test system: SF-295
SR = test system: SR
SW-620 = test system: SW-620
U-251 = test system: U-251
UACC-257 = test system: UACC-257
UO-31 = test system: UO-31
Malme-3M = test system: Malme-3M
NCI-H226 = test system: NCI-H226
OVCAR-8 = test system: OVCAR-8

Measured: GI50

CCOC(=O)c1c(-c2ccc(O)c(OC)c2)c(C#N)c(=S)n(C2OC(COC(C)=O)C(OC(C)=O)C(OC(C)=O)C2OC(C)=O)c1-c1ccccc1 (stereo not given)
inactive: 786-0 71.6 µM and 52.5 µM | A549 > 100 µM and 94.4 µM | CCRF-CEM 58.7 µM and 45.4 µM | COLO 205 43.3 µM and 30.3 µM | EKVX 96.8 µM and 75.5 µM | HOP-62 61.4 µM | MDA-MB-435 56.2 µM and 71 µM | MDA-N 61.7 µM and 39.4 µM | NCI-H460 > 100 µM and 70.1 µM | NCI/ADR-RES 72.1 µM | OVCAR-4 > 100 µM | SF-295 > 100 µM | SR > 100 µM | SW-620 > 100 µM | U-251 > 100 µM | UACC-257 > 100 µM and 62.2 µM | UO-31 43.7 µM and 62.1 µM

CCN(CC)CCNc1nc(N)c(C#N)c(C#N)c1C#N
inactive: 786-0 > 10 µM | A549 > 10 µM | CCRF-CEM > 10 µM | COLO 205 > 10 µM | EKVX > 10 µM | HOP-62 > 10 µM | MDA-MB-435 > 10 µM | MDA-N > 10 µM | Malme-3M > 10 µM | NCI-H226 > 10 µM | NCI-H460 > 10 µM | NCI/ADR-RES > 10 µM | OVCAR-4 > 10 µM | OVCAR-8 > 10 µM | SF-295 > 10 µM | SW-620 > 10 µM | U-251 > 10 µM | UACC-257 > 10 µM | UO-31 > 10 µM

COC(=O)Nc1nc2cc(NC(=O)c3ccc(I)cc3)ccc2[nH]1
inactive: 786-0 > 100 µM | A549 > 100 µM | CCRF-CEM > 100 µM | COLO 205 > 100 µM | EKVX > 100 µM | HOP-62 > 100 µM | MDA-MB-435 > 100 µM | MDA-N > 100 µM | Malme-3M 72.6 µM | NCI-H226 > 100 µM | NCI-H460 > 100 µM | NCI/ADR-RES > 100 µM | OVCAR-4 > 100 µM | OVCAR-8 > 100 µM | SF-295 > 100 µM | SW-620 > 100 µM | U-251 > 100 µM | UACC-257 > 100 µM | UO-31 > 100 µM

O=C(NNc1nc(-c2ccccc2)cs1)Nc1ccccc1
inactive: 786-0 30.2 µM | A549 19.5 µM | CCRF-CEM 34.3 µM | COLO 205 19.6 µM | EKVX 32 µM | HOP-62 18.7 µM | MDA-MB-435 22.2 µM | MDA-N 24.2 µM | Malme-3M 39.5 µM | NCI-H226 20.4 µM | NCI-H460 24 µM | NCI/ADR-RES 20.7 µM | OVCAR-4 28.7 µM | OVCAR-8 22.7 µM | SF-295 28.1 µM | SW-620 37.6 µM | U-251 22.2 µM | UACC-257 20.7 µM | UO-31 25.4 µM

CCN(CC)CCOCC1CCCN2CCCCC12 (stereo not given)
inactive: 786-0 > 100 µM | A549 > 100 µM | CCRF-CEM > 100 µM | COLO 205 > 100 µM | EKVX > 100 µM | HOP-62 > 100 µM | MDA-MB-435 > 100 µM | MDA-N > 100 µM | Malme-3M > 100 µM | NCI-H226 > 100 µM | NCI-H460 > 100 µM | NCI/ADR-RES > 100 µM | OVCAR-4 > 100 µM | OVCAR-8 > 100 µM | SF-295 > 100 µM | SW-620 > 100 µM | U-251 > 100 µM | UACC-257 > 100 µM | UO-31 > 100 µM

O=C(C1OC1c1cccc([N+](=O)[O-])c1)C12CC3CC(CC(C3)C1)C2 (stereo not given)
inactive: 786-0 2.69 µM | A549 12.9 µM | CCRF-CEM 2.89 µM | COLO 205 9.89 µM | EKVX 13.2 µM | HOP-62 10.7 µM | MDA-MB-435 3.52 µM | MDA-N 3.19 µM | Malme-3M 13.7 µM | NCI-H226 10.5 µM | NCI-H460 4.06 µM | NCI/ADR-RES 3.24 µM | OVCAR-4 4.27 µM | OVCAR-8 2.25 µM | SF-295 6.11 µM | SW-620 2.97 µM | U-251 2.88 µM | UACC-257 11.7 µM | UO-31 8.26 µM

O=C(Nc1ccc(F)cc1)c1cc2ccc(O)cc2o/c1=N\c1cccc(F)c1
inactive: 786-0 39.9 µM | CCRF-CEM 15.2 µM | COLO 205 > 100 µM | EKVX 22.9 µM | HOP-62 42.5 µM | MDA-MB-435 31.8 µM | MDA-N 38.8 µM | Malme-3M 20.2 µM | NCI-H460 31.7 µM | NCI/ADR-RES 28.2 µM | OVCAR-4 26 µM | OVCAR-8 18.4 µM | SF-295 43.9 µM | SR 33.3 µM | SW-620 41.5 µM | U-251 28.7 µM | UACC-257 33.5 µM

CC1=[N+]([O-])C2(CCCC2)N(O)C1(C)C
inactive: 786-0 > 100 µM | A549 > 100 µM | COLO 205 > 100 µM | EKVX > 100 µM | HOP-62 > 100 µM | MDA-MB-435 > 100 µM | MDA-N > 100 µM | Malme-3M > 100 µM | NCI-H226 > 100 µM | NCI-H460 > 100 µM | NCI/ADR-RES > 100 µM | OVCAR-4 > 100 µM | OVCAR-8 > 100 µM | SF-295 > 100 µM | SW-620 > 100 µM | U-251 > 100 µM | UACC-257 > 100 µM | UO-31 > 100 µM

COc1cc(/C=C2\CC3C4CC[C@H]5C[C@@H](O)CC[C@]5(C)C4CC[C@]3(C)\C2=N\O)cc(OC)c1OC (stereo not given in full)
inactive: 786-0 7.96 µM | A549 7 µM | CCRF-CEM 6.47 µM | COLO 205 5.94 µM | EKVX 8.81 µM | HOP-62 12 µM | MDA-MB-435 7.41 µM | MDA-N 14.8 µM | Malme-3M 16.7 µM | NCI-H226 10.8 µM | NCI-H460 8.05 µM | NCI/ADR-RES 12.9 µM | OVCAR-4 5.74 µM | OVCAR-8 17.3 µM | SF-295 3.97 µM | SW-620 18.2 µM | U-251 10.6 µM | UACC-257 10.7 µM | UO-31 3.44 µM

C[C@]12CC[C@@H]3c4ccc(OS(N)(=O)=O)cc4CC[C@H]3[C@@H]1CCC2=O [EMATE]
inactive: 786-0 53.3 µM | A549 35 µM | CCRF-CEM 39 µM | COLO 205 38.7 µM | EKVX 5.07 µM | HOP-62 55.2 µM | MDA-MB-435 39.4 µM | MDA-N 31.6 µM | Malme-3M 45.6 µM | NCI-H226 49.3 µM | NCI-H460 31.6 µM | NCI/ADR-RES 26.6 µM | OVCAR-4 57.7 µM | OVCAR-8 53 µM | SF-295 36.4 µM | SW-620 44.6 µM | U-251 46.2 µM | UACC-257 32.4 µM | UO-31 38.7 µM
